US20050245399A1, “Pyrazole derivatives as herbicidal compositions containing them” (ISHIHARA SANGYO KAISHA, LTD., priority 2004, published 2005)

Experiments:
Type in all cases: in vivo
[1] = test system: barnyardgrass (Echinochloa crus-galli L.): ECHCG; test: Test Example 1 pre-emergence herbicidal activity, ECHCG; details: Rate 63 g a.i./ha, visually observed 20th to 23rd day after application
Excerpt: (§1) Upland field soil was put into a 1/170,000 ha pot, and seeds of various plants {1. barnyardgrass (Echinochloa crus-galli L.): ECHCG, 2. crabgrass (Digitaria sanguinalis L.): DIGSA, 3. green foxtail (Setaria viridis L.): SETVI, 4. redroot pigweed (Amaranthus retroflexus L.): AMARE, 5. prickly sida (Sida spinosa L.): SEDSP, 6. velvetleaf (Abutilon theophrasti): ABUTH, 7. common cocklebur (Xanthium strumarium L.): XANST, 8. rice (Oryza sativa L.): ORYSA, 9. wheat (Triticum aestivum L.): TRZAX, 10. corn (Zea mays L.): ZEAMX, 11. soybean (Glycine max Merr.): GLXMA} were sown. Then, one day after the sowing, a wettable powder or emulsifiable concentrate having the compound of the present invention formulated in accordance with a usual formulation method, was weighed so that the active ingredient would be a predetermined amount and diluted with water in an amount of 500 L/ha. The herbicide adjusted was applied by a small size sprayer for preemergence treatment. On the 20th to 23rd day after the application of the herbicide, the growth of the respective plants was visually observed, and the herbicidal effects were evaluated by growth controlling degrees (%) ranging from 0 (equivalent to the untreated control) to 100 (complete kill), whereby the results shown in Table 4, were obtained. Compound Nos. in Table 4 correspond to Compound Nos. in Table 1 and 2 given hereinbefore.

[2] = test system: crabgrass (Digitaria sanguinalis L.): DIGSA; test: Test Example 1 pre-emergence herbicidal activity, DIGSA; details: Rate 63 g a.i./ha, visually observed 20th to 23rd day after application
Excerpt: as §1

[3] = test system: green foxtail (Setaria viridis L.): SETVI; test: Test Example 1 pre-emergence herbicidal activity, SETVI; details: Rate 63 g a.i./ha, visually observed 20th to 23rd day after application
Excerpt: as §1

[4] = test system: redroot pigweed (Amaranthus retroflexus L.): AMARE; test: Test Example 1 pre-emergence herbicidal activity, AMARE; details: Rate 63 g a.i./ha, visually observed 20th to 23rd day after application
Excerpt: as §1

[5] = test system: prickly sida (Sida spinosa L.): SEDSP; test: Test Example 1 pre-emergence herbicidal activity, SIDSP; details: Rate 63 g a.i./ha, visually observed 20th to 23rd day after application
Excerpt: as §1

[6] = test system: velvetleaf (Abutilon theophrasti): ABUTH; test: Test Example 1 pre-emergence herbicidal activity, ABUTH; details: Rate 63 g a.i./ha, visually observed 20th to 23rd day after application
Excerpt: as §1

[7] = test system: rice (Oryza sativa L.): ORYSA; test: Test Example 1 pre-emergence herbicidal activity, ORYSA; details: Rate 63 g a.i./ha, visually observed 20th to 23rd day after application
Excerpt: as §1

[8] = test system: wheat (Triticum aestivum L.): TRZAX; test: Test Example 1 pre-emergence herbicidal activity, TRZAX; details: Rate 63 g a.i./ha, visually observed 20th to 23rd day after application
Excerpt: as §1

[9] = test system: corn (Zea mays L.): ZEAMX; test: Test Example 1 pre-emergence herbicidal activity, ZEAMX; details: Rate 63 g a.i./ha, visually observed 20th to 23rd day after application
Excerpt: as §1

[10] = test system: soybean (Glycine max Merr.): GLXMA; test: Test Example 1 pre-emergence herbicidal activity, GLXMA; details: Rate 63 g a.i./ha, visually observed 20th to 23rd day after application
Excerpt: as §1

[11] = test system: barnyardgrass (Echinochloa crus-galli L.), ECHCG; test: Test Example 2 post-emergence (foliage treatment) herbicidal activity, ECHCG; details: 63 g a.i./ha
Excerpt: (§2) Upland field soil was put into a 1/170,000 ha pot, and seeds of various plants were sown. Then, when the plants reached predetermined leaf stages {1. barnyardgrass (Echinochloa crus-galli L.), ECHCG: 1.1-2.1 leaf stage, 2. crabgrass (Digitaria sanguinalis L.), DIGSA: 1.0-2.0 leaf stage, 3. green foxtail (Setaria viridis L.), SETVI: 1.0-2.2 leaf stage, 4. redroot pigweed (Amaranthus retroflexus L.), AMARE: 0.1-1.5 leaf stage, 5. prickly sida (Sida spinosa L.), SIDSP: 0.1-0.6 leaf stage, 6. velvetleaf (Abutilon theophrasti), ABUTH: 0.1-0.6 leaf stage, 7. common cocklebur (Xanthium strumarium L.), XANST: 0.1 leaf stage, 8. rice (Oryza sativa L.), ORYSA; 1.0-2 leaf stage, 9. wheat (Triticum aestivum L.), TRZAX: 2.3-3.5 leaf stage, 10. corn (Zea mays L.), ZEAMXN 2.1-2.6 leaf stage, 11. soybean (Glycine max Merr.), GLXMA: primary leaf stage}, a wettable powder or emulsifiable concentrate having the compound of the present invention formulated in accordance with a usual formulation method, was weighed so that the active ingredient would be a predetermined amount, and diluted with water in an amount of 500 L/ha. To the diluted solution, 0.1% (v/v) of an agricultural spreader was added. The herbicide adjusted was applied by a small size sprayer for foliage treatment. On the 20th to 23rd day after the application of the herbicide, the growth of the respective plants was visually observed, and the herbicidal effects were evaluated by growth controlling degrees (%) ranging from 0 (equivalent to the untreated control) to 100 (complete kill), whereby the results shown in Table 5, were obtained. Compound Nos. in Table 5 correspond to Compound Nos. in Table 1 and 2 given hereinbefore.

[12] = test system: crabgrass (Digitaria sanguinalis L.), DIGSA; test: Test Example 2 post-emergence (foliage treatment) herbicidal activity, DIGSA; details: 63 g a.i./ha
Excerpt: as §2

[13] = test system: green foxtail (Setaria viridis L.), SETVI; test: Test Example 2 post-emergence (foliage treatment) herbicidal activity, SETVI; details: 63 g a.i./ha
Excerpt: as §2

[14] = test system: prickly sida (Sida spinosa L.), SIDSP; test: Test Example 2 post-emergence (foliage treatment) herbicidal activity, SIDSP; details: 63 g a.i./ha
Excerpt: as §2

[15] = test system: velvetleaf (Abutilon theophrasti), ABUTH; test: Test Example 2 post-emergence (foliage treatment) herbicidal activity, ABUTH; details: 63 g a.i./ha
Excerpt: as §2

[16] = test system: rice (Oryza sativa L.), ORYSA; test: Test Example 2 post-emergence (foliage treatment) herbicidal activity, ORYSA; details: 63 g a.i./ha
Excerpt: as §2

[17] = test system: wheat (Triticum aestivum L.), TRZAX; test: Test Example 2 post-emergence (foliage treatment) herbicidal activity, TRZAX; details: 63 g a.i./ha
Excerpt: as §2

[18] = test system: corn (Zea mays L.), ZEAMX; test: Test Example 2 post-emergence (foliage treatment) herbicidal activity, ZEAMX; details: 63 g a.i./ha
Excerpt: as §2

[19] = test system: soybean (Glycine max Merr.), GLXMA; test: Test Example 2 post-emergence (foliage treatment) herbicidal activity, GLXMA; details: 63 g a.i./ha
Excerpt: as §2

| SMILES | Pre-emergence Herbicidal Activity ECHCG (growth controlling degree) [1] | Pre-emergence Herbicidal Activity DIGSP (growth controlling degree) [2] | Pre-emergence Herbicidal Activity SETVI (growth controlling degree) [3] | Pre-emergence Herbicidal Activity AMARE (growth controlling degree) [4] | Pre-emergence Herbicidal Activity SIDSP (growth controlling degree) [5] | Pre-emergence Herbicidal Activity ABUTH (growth controlling degree) [6] | Pre-emergence Herbicidal Activity ORYSA (growth controlling degree) [7] | Pre-emergence Herbicidal Activity TRZAX (growth controlling degree) [8] | Pre-emergence Herbicidal Activity ZEAMX (growth controlling degree) [9] | Pre-emergence Herbicidal Activity GLXMA (growth controlling degree) [10] | growth controlling degree, ECHCO [11] | growth controlling degree, DIGSP [12] | growth controlling degree, SETVI [13] | growth controlling degree, SIDSP [14] | growth controlling degree, ABUTH [15] | growth controlling degree, ORYSA [16] | growth controlling degree, TRZAX [17] | growth controlling degree, ZEAMX [18] | growth controlling degree, GLXMA [19] |
| --- | --- | --- | --- | --- | --- | --- | --- | --- | --- | --- | --- | --- | --- | --- | --- | --- | --- | --- | --- |
| COc1c(Cl)cc(F)c(-c2nn(C)c(OC(F)F)c2Cl)c1NC(=O)OCC1CCCCC1 [Compound 1-73] | 30% | 20% | 60% | 100% | 20% | 10% | 10% | 0% | 0% | 0% | 100% | 10% | 70% | 100% | 100% | 50% | 50% | 10% | 50% |
| COc1c(Cl)cc(F)c(-c2nn(C)c(OC(F)F)c2Cl)c1NC(=O)c1ccc(C)cc1 [Compound 1-261] | 80% | 100% | 98% | 100% | 100% | 80% | 40% | 10% | 0% | 0% | 100% | 95% | 100% | 100% | 100% | 70% | 30% | 40% | 70% |
| COc1c(Cl)cc(F)c(-c2nn(C)c(OC(F)F)c2Cl)c1NC(=O)C=Cc1ccc(F)cc1 [Compound 1-258] | 10% | 70% | 30% | 100% | 70% | 70% | 40% | 0% | 0% | 0% | 60% | 40% | 60% | 100% | 100% | 40% | 10% | 10% | 20% |
| COc1c(Cl)cc(F)c(-c2nn(C)c(OC(F)F)c2Cl)c1NC(=O)CC(C)(C)C [Compound 1-265] | 20% | 100% | 70% | 100% | 100% | 100% | 10% | 20% | 0% | 0% | 60% | 60% | 80% | 100% | 95% | 40% | 30% | 30% | 50% |
